Values quoted from earlier work as cited in patent publication US20190070181A1, “FORMULATION OF TICAGRELOR OR PHARMACEUTICALLY ACCEPTABLE SALT THEREOF” (Jiangsu Hengrui Medicine Co., Ltd., priority 2017, published 2019).

Tests used:
[1] = not given; remark: listed apart in the source

Structure (SMILES): CCCSc1nc(N[C@@H]2C[C@H]2c2ccc(F)c(F)c2)c2nnn([C@@H]3C[C@H](O)[C@@H](O)[C@H]3O)c2n1 [AR-C124910XX]
- average t1/2 (in vivo): about 9 hours

Structure (SMILES): CCCSc1nc(N[C@@H]2C[C@H]2c2ccc(F)c(F)c2)c2nnn([C@@H]3C[C@H](OCCO)[C@@H](O)[C@H]3O)c2n1 [ticagrelor, (1S,2S,3R,5S)-3-[7-{[(1R,2S)-2-(3,4-difluorophenyl)cyclopropyl]amino}-5-(propylthio)-3H-[1,2,3]-triazolo[4,5-d]pyrimidin-3-yl]-5-(2-hydroxyethoxy)cyclopentane-1,2-diol]
- average t1/2 (in vivo): about 7 hours
- dose up to which the pharmacokinetics is linear (in vivo): up to 1260 mg
- median tmax (oral administration): about 1.5 hours
- average recovery of the radiation in feces (radiolabeled ticagrelor, feces): 58%
- average recovery of the radiation (radiolabeled ticagrelor, total): about 84%
- average recovery of the radiation in urine (radiolabeled ticagrelor, urine): 26%
- solubility in water [1]: almost insoluble in water
- time the IPA effect can be maintained (platelet aggregation; 180 mg loading dose): 2 to 8 h
- IPA maximum (platelet aggregation; 2-4 hours after 180 mg loading dose): 89%
- mean inhibition of platelet aggregation (IPA) (platelet aggregation; 0.5 hour after 180 mg loading dose): 41%
